{
  "source": "patent US10550105B2",
  "about": "(Ribon Therapeutics Inc., priority 2018, dated 2020)",
  "data": [
    {"target": "PARP7 (Homo sapiens (Human), UniProt Q7Z3E1)", "sequence (Q7Z3E1 whole entry)": "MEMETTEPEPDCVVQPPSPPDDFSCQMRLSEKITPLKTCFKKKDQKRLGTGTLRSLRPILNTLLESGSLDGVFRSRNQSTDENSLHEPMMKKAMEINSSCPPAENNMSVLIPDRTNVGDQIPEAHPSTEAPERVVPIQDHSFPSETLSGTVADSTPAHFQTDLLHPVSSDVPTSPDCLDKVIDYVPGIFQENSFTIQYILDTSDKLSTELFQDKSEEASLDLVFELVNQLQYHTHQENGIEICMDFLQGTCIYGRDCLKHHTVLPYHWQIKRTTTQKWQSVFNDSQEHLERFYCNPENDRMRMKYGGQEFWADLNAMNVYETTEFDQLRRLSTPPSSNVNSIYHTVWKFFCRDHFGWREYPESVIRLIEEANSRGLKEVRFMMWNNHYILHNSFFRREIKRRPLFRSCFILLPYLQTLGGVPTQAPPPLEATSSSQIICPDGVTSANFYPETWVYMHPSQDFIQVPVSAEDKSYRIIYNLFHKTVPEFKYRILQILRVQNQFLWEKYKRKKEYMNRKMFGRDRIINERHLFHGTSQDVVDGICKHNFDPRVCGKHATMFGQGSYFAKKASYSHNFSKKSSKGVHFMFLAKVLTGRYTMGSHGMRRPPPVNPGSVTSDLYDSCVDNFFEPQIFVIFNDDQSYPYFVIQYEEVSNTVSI", "assay": "Enzymatic assay for inhibition of PARP7: TR-FRET displacement of biotinylated Probe A from the TIPARP active site", "type": "binding", "conditions": "Table A-1", "description": "20 nL of a dose response curve of each test compound was spotted in black 384-well polystyrene proxiplates (Perkin Elmer) using a Mosquito (TTP Labtech). […] Reactions were incubated at 25° C. for an additional 30 min, then read on an Envision platereader equipped with a LANCE/DELFIA top mirror (Perkin Elmer) using excitation of 320 nm and emission of 615 nm and […] with a 90 μs delay. The ratio of the 665/615 nm emission were calculated for each well to determine the amount of complex of TIPARP and Probe A in each well. […] The Hill Coefficient is normally allowed to float but may also be fixed at 1 in a 3-parameter fit. Y is the % inhibition and x is the compound concentration.", "units": {"IC50": "nM"}, "values": [
      {"smiles": "CC[C@@H](COc1cn[nH]c(=O)c1C(F)(F)F)OCCC(=O)N1CCN(c2ncc(Cl)cn2)CC1", "note": "[Example 591 Isomer B, 5-[(2S)-2-[3-[4-(5-Chloropyrimidin-2-yl)piperazin-1-yl]-3-oxopropoxy]butoxy]-4-(trifluoromethyl)-2,3-dihydropyridazin-3-one]", "IC50": "< 100"},
      {"smiles": "C[C@@H](O)[C@@H](COCCC(=O)N1CCN(c2ncc(C(F)(F)F)cn2)CC1)Nc1cn[nH]c(=O)c1C(F)(F)F", "note": "[Example 610, 5-[[(2R,3R)-3-Hydroxy-1-(3-oxo-3-[4-[5-(trifluoromethyl)pyrimidin-2-yl]piperazin-1-yl]propoxy)butan-2-yl]amino]-4-(trifluoromethyl)-2,3-dihydropyridazin-3-one]", "IC50": "< 100"},
      {"smiles": "CN1CCC(Oc2ccc3c(c2)CN(c2cn[nH]c(=O)c2C(F)(F)F)C3)C1", "note": "(centres unmarked) [Example 238, 5-(5-((1-Methylpyrrolidin-3-yl)oxy)isoindolin-2-yl)-4-(trifluoromethyl)pyridazin-3(2H)-one]", "IC50": "< 100"},
      {"smiles": "COC[C@H](CO[C@H](C)CC(=O)N1CCN(c2ccc(C#N)cn2)CC1)Oc1cn[nH]c(=O)c1C(F)(F)F", "note": "(single isomer, unassigned) [Example 571 Isomer C]", "IC50": "≥ 1000"},
      {"smiles": "N#Cc1ccc(N2CCN(C(=O)[C@@H]3CCC[C@@H](OC[C@@H]4CCCN4c4cn[nH]c(=O)c4C(F)(F)F)C3)CC2)nc1", "note": "(single isomer, unassigned) [Example 57 Isomer B]", "IC50": "< 100"},
      {"smiles": "CC(=O)N1CCC(Oc2cc3c(cc2F)CN(c2cn[nH]c(=O)c2C(F)(F)F)C3)C1", "note": "(centres unmarked) [Example 54, 5-(5-(1-acetylpyrrolidin-3-yloxy)-6-fluoroisoindolin-2-yl)-4-(trifluoromethyl)pyridazin-3(2H)-one]", "IC50": "< 100"},
      {"smiles": "N#Cc1ccc(N2CCN(C(=O)c3ccnc(OCC4c5ccccc5CN4c4cn[nH]c(=O)c4C(F)(F)F)c3)CC2)nc1", "note": "(centres unmarked) [Example 381, 6-(4-(2-((2-(6-Oxo-5-(trifluoromethyl)-1,6-dihydropyridazin-4-yl)isoindolin-1-yl)methoxy)isonicotinoyl)piperazin-1-yl)nicotinonitrile]", "IC50": "< 100"},
      {"smiles": "O=c1[nH]ncc(N2Cc3cccc(N4CCC(O)C4)c3C2)c1C(F)(F)F", "note": "(centres unmarked) [Example 305, 5-(4-(3-Hydroxypyrrolidin-1-yl)isoindolin-2-yl)-4-(trifluoromethyl)pyridazin-3(2H)-one 2,2,2-trifluoroacetic acid]", "IC50": "< 100"},
      {"smiles": "O=C(C[C@@H]1CC[C@H](COc2cn[nH]c(=O)c2C(F)(F)F)O1)N1CCN(c2ccc(C(F)(F)F)cn2)CC1", "note": "(single isomer, unassigned) [Example 545 Isomer D]", "IC50": "< 100"},
      {"smiles": "COC[C@@H](COCCC(=O)N1CCN(c2ncc(Cl)cn2)CC1)Oc1cn[nH]c(=O)c1C(F)(F)F", "note": "(single isomer, unassigned)", "IC50": "< 100"},
      {"smiles": "C[C@@H](COCC(O)CN1CCN(c2ncc(C(F)(F)F)cn2)CC1)Nc1cn[nH]c(=O)c1C(F)(F)F", "note": "(stereo partly drawn) [Example 626, 5-(((2S)-1-(2-Hydroxy-3-(4-(5-(trifluoromethyl)pyrimidin-2-yl)piperazin-1-yl)propoxy)propan-2-yl)amino)-4-(trifluoromethyl)pyridazin-3(2H)-one]", "IC50": "< 100"},
      {"smiles": "CN1CCC(COc2cc3c(cc2F)CN(c2cn[nH]c(=O)c2C(F)(F)F)C3)CC1", "note": "[Example 22, 5-[5-fluoro-6-[(1-methylpiperidin-4-yl)methoxy]-2,3-dihydro-1H-isoindol-2-yl]-4-(trifluoromethyl)-2,3-dihydropyridazin-3-one]", "IC50": "< 100"},
      {"smiles": "CC(=O)N1CCC(Oc2cc3c(cc2F)CN(c2cn[nH]c(=O)c2C(F)(F)F)C3)CC1", "note": "[Example 1, 5-[5-[(1-acetylpiperidin-4-yl)oxy]-6-fluoro-2,3-dihydro-1 H-isoindol-2-yl]-4-(trifluoromethyl)-2,3-dihydropyridazin-3-one]", "IC50": "< 100"},
      {"smiles": "N#Cc1ccc(N2CCN(C(=O)c3ccc(OCCc4cccc5c4CN(c4cn[nH]c(=O)c4C(F)(F)F)C5)cc3)CC2)nc1", "note": "[Example 402, 6-(4-(4-(2-(2-(6-Oxo-5-(trifluoromethyl)-1,6-dihydropyridazin-4-yl)isoindolin-4-yl)ethoxy)benzoyl)piperazin-1-yl)nicotinonitrile]", "IC50": "< 100"},
      {"smiles": "N#Cc1ccc(N2CCN(C(=O)c3ccnc(OC[C@H]4c5ccccc5CN4c4cn[nH]c(=O)c4C(F)(F)F)n3)CC2)nc1", "note": "[Example 38 Isomer B, 6-[4-[(2-[[(1R)-2-[6-Oxo-5-(trifluoromethyl)-1,6-dihydropyridazin-4-yl]-2,3-dihydro-1H-isoindol-1-yl]methoxy]pyrimidin-4-yl)carbonyl]piperazin-1-yl]pyridine-3-carbonitrile]", "IC50": "< 100"},
      {"smiles": "N#CCCC(=O)N1CCN(C(=O)CCOC[C@H]2c3ccccc3CN2c2cn[nH]c(=O)c2C(F)(F)F)CC1", "note": "[Example 424, (R)-4-Oxo-4-(4-(3-((2-(6-oxo-5-(trifluoromethyl)-1,6-dihydropyridazin-4-yl)isoindolin-1-yl)methoxy)propanoyl)piperazin-1-yl)butanenitrile]", "IC50": "≥ 1000"},
      {"smiles": "O=c1[nH]ncc(N2Cc3c(F)ccc(OC4CCNCC4)c3C2)c1C(F)(F)F", "note": "[Example 291, 5-(4-Fluoro-7-(piperidin-4-yloxy)isoindolin-2-yl)-4-(trifluoromethyl)pyridazin-3(2H)-one]", "IC50": "100 to 1000"},
      {"smiles": "CNc1cccc2c1CN(c1cn[nH]c(=O)c1C(F)(F)F)C2", "note": "[Example 215, 5-(4-(Methylamino)isoindolin-2-yl)-4-(trifluoromethyl)pyridazin-3(2H)-one]", "IC50": "< 100"},
      {"smiles": "O=C(C[C@H]1CC[C@@H](COc2cn[nH]c(=O)c2C(F)(F)F)O1)N1CCN(c2ncc(C(F)(F)F)cn2)CC1", "note": "[Example 574 Isomer C, 5-(((2S,5R)-5-(2-Oxo-2-(4-(5-(trifluoromethyl)pyrimidin-2-yl)piperazin-1-yl)ethyl)-tetrahydrofuran-2-yl)methoxy)-4-(trifluoromethyl)pyridazin-3(2H)-one]", "IC50": "< 100"},
      {"smiles": "N#Cc1ccc(N2CCN(C(=O)c3cc(OCC4c5ccccc5CN4c4cn[nH]c(=O)c4C(F)(F)F)ccn3)CC2)nc1", "note": "(centres unmarked) [Example 355, 6-(4-(4-((2-(6-Oxo-5-(trifluoromethyl)-1,6-dihydropyridazin-4-yl)isoindolin-1-yl)methoxy)picolinoyl)piperazin-1-yl)nicotinonitrile]", "IC50": "< 100"},
      {"smiles": "CN(CC[C@@H]1CCCN1c1cn[nH]c(=O)c1C(F)(F)F)CC(=O)N1CCN(c2ccc(C#N)cn2)CC1", "note": "[Example 91]", "IC50": "100 to 1000"},
      {"smiles": "O=C(CCNC[C@@H]1c2ccccc2CN1c1cn[nH]c(=O)c1C(F)(F)F)N1CCN(c2ncc(Cl)cn2)CC1", "note": "[Example 627, (S)-5-(1-(((3-(4-(5-Chloropyrimidin-2-yl)piperazin-1-yl)-3-oxopropyl)amino)methyl)isoindolin-2-yl)-4-(trifluoromethyl)pyridazin-3(2H)-one]", "IC50": "< 100"},
      {"smiles": "COC[C@@H](COCCC(=O)N1CCN(c2ncc(C(F)(F)F)cn2)CC1)Oc1cn[nH]c(=O)c1Br", "note": "[Example 666, (S)-4-Bromo-5-((1-methoxy-3-(3-oxo-3-(4-(5-(trifluoromethyl)pyrimidin-2-yl)piperazin-1-yl)propoxy)propan-2-yl)oxy)pyridazin-3(2H)-one]", "IC50": "< 100"},
      {"smiles": "NC(=O)COc1cccc2c1CN(c1cn[nH]c(=O)c1C(F)(F)F)C2", "note": "[Example 204, 2-((2-(6-Oxo-5-(trifluoromethyl)-1,6-dihydropyridazin-4-yl)isoindolin-4-yl)oxy)acetamide]", "IC50": "100 to 1000"},
      {"smiles": "O=C(C[C@H]1CC[C@@H](COc2cn[nH]c(=O)c2Cl)O1)N1CCN(c2ncc(C(F)(F)F)cn2)CC1", "note": "[Example 575 Isomer C, 4-Chloro-5-(((2S,5R)-5-(2-oxo-2-(4-(5-(trifluoromethyl)pyrimidin-2-yl)piperazin-1-yl)ethyl)-tetrahydrofuran-2-yl)methoxy)pyridazin-3(2H)-one]", "IC50": "100 to 1000"},
      {"smiles": "N#Cc1ccc(N2CCN(C(=O)c3cncc(OC[C@@H]4c5ccccc5CN4c4cn[nH]c(=O)c4C(F)(F)F)c3)CC2)nc1", "note": "[Example 353, (S)-6-(4-(5-((2-(6-Oxo-5-(trifluoromethyl)-1,6-dihydropyridazin-4-yl)isoindolin-1-yl)methoxy)nicotinoyl)piperazin-1-yl)nicotinonitrile]", "IC50": "< 100"},
      {"smiles": "N#Cc1ccc(N2CCN(C(=O)C3CCC(OCC4CCN(c5cn[nH]c(=O)c5C(F)(F)F)C4)CC3)CC2)nc1", "note": "(centres unmarked) [Example 97, 6-[4-[4-([1-[6-oxo-5-(trifluoromethyl)-1,6-dihydropyridazin-4-yl]pyrrolidin-3-yl]methoxy)cyclohexanecarbonyl]piperazin-1-yl]pyridine-3-carbonitrile]", "IC50": "< 100"},
      {"smiles": "C[C@@H](COCCS(=O)(=O)N1CCN(c2ncc(C(F)(F)F)s2)CC1)Nc1cn[nH]c(=O)c1C(F)(F)F", "note": "[Example 726, (S)-4-(Trifluoromethyl)-5-((1-(2-((4-(5-(trifluoromethyl)thiazol-2-yl)piperazin-1-yl)sulfonyl)ethoxy)propan-2-yl)amino)pyridazin-3(2H)-one]", "IC50": "< 100"},
      {"smiles": "COC[C@@H](COCCC(=O)N1CCN(c2ncc(C(F)(F)F)cn2)CC1)Oc1cn[nH]c(=O)c1C(F)(F)F", "note": "(single isomer, unassigned) [Example 570 Isomer A]", "IC50": "< 100"},
      {"smiles": "C[C@@H](COCCC(=O)N1CCN(c2ncc(Cl)cn2)CC1)Nc1cn[nH]c(=O)c1Cl", "note": "[Example 598, 4-Chloro-5-[[(2S)-1-[3-[4-(5-chloropyrimidin-2-yl)piperazin-1-yl]-3-oxopropoxy]propan-2-yl]amino]-2,3-dihydropyridazin-3-one]", "IC50": "< 100"},
      {"smiles": "NCCOc1cnc2c(c1)CN(c1cn[nH]c(=O)c1C(F)(F)F)C2", "note": "[Example 334, 5-(3-(2-Aminoethoxy)-5,7-dihydro-6H-pyrrolo[3,4-b]pyridin-6-yl)-4-(trifluoromethyl)pyridazin-3(2H)-one]", "IC50": "100 to 1000"},
      {"smiles": "CN(C)CCOc1cccc2c1CN(c1cn[nH]c(=O)c1C(F)(F)F)C2", "note": "[Example 212, 5-(4-(2-(Dimethylamino)ethoxy)isoindolin-2-yl)-4-(trifluoromethyl)pyridazin-3(2H)-one]", "IC50": "100 to 1000"}
    ]}
  ]
}
